From patent publication US20230190883A1, “STABLE PEPTIDES HAVING RENALASE AGONIST ACTIVITY” (Bessor Pharma, LLC, priority 2020, published 2023)
Marks after values point to notes of the source that are not given here.

What was measured:
[1] = test system: carrageenan-induced Paw edema; experiment: carrageenan-induced paw edema (CPE) model in mice; format: in vivo, CD-1 mice; conditions: for activity at 2 hours: 2 hours after carrageenan
Source text: This test is a rapid in vivo model for evaluation of anti-inflammatory efficacy of test articles. The CPE model in mice quantitativdy assesses inhibition of edema enduced by subplantarinjection of carrageenan. […] Carrageenan-induced inflammation invoves extravasation of polymorphonuclear leukocytes from circulation to the site of inflammation. The subsequent release of myeloperoxidase and other cytokines within the interstitial tissues results in plasma exudation into the site of inflammation. The increased paw volume is measured by water displacement. Anti-inflammatory drugs reduce the paw edema.
• 1. Receive (SOP 1910, SOP 1920) and quarantine (SOP 560) 125 CD-1 mice (Charles River Laboratories, male, 5-6 weeks old). • 2. Animals are ear tagged (SOP 810), weighed, and sorted into 9 groups with 10 animals/group and 5 groups of 7 animals/group based upon average body weight. • 3. Prepare 3% carrageenan solution: • 1) Preparation at least 2 weeks in advance of use. • 2) Weigh out 600 mg A-carrageenan into a glass beaker. • 3) Add 20 ml deionized water. • 4) Stir on mild heat until carrageenan fully dissolved. • 5) Cool solution to ambient temperature. • 6) Store at 4-8° C. • 4. Until the day of use the renalase peptides are stored at -20° C. as dry powder. • 5. DAY 0 • a. Prepare test material in sterile saline (vehicle). • b. On the day of dosing, renalase peptides are dissolved. • c. On day prior to administration check carrageenan solution for clarity (no visible evidence of contamination). • 1) Equilibrate carrageenan to ambient temperature. • d. Record mouse weights in laboratory notebook. • e. Measure and record paw initial paw volumes: • 1) Place beaker of water on balance and tare to zero. • 2) Place right hind limb in the beaker of water on the scale with the top of the hock centered in the meniscus of the water. Record read-out on the scale. • 3) The foot must be dried after each measurement as wet feet will change the readout. • 4) Re-tare the scale between measurements to account for decrease in water volume. • f. […]
The test was also conducted to compare the inhibition of inflammation by peptide 10 as compared to the corresponding peptide fragment without the alanine substitution at position 220 (peptide 81).

[2] = test system: COVID-19 mouse model; experiment: COVID-19 mouse model, survival; conditions: FIG. 11
[3] = test system: acute pancreatitis; experiment: experimental acute pancreatitis (AP), mouse model; format: in vivo
Source text: This likely represents inhibition of inflammatory pathways central to AP pathogenesis; a probable target is inflammatory activation (FIG. 5). Since most patients with AP present long after disease onset and later onset responses are most important in determining AP severity, the beneficial effects of peptide 10 should be therapeutically valuable even late in the course of disease. In this context we have shown that RNLS agonists reduce injury when given 2 hrs after the onset of cerulein AP and 12hrs after the induction of arginine AP.

[4] = test system: cultured proximal renal tubule cell line; experiment: cisplatin-induced injury of cultured kidney cells; format: cell-based
Source text: We have shown that a peptide of the invention [Ala^220]-Ac-Renalase A (205-240)-NH2 eliminated cisplatin-induced injury of cultured kidney cells. […] Data are shown below for such RNLS agonists

[5] = test system: blood from healthy donors; format: cell-based
[6] = test system: severe viral infection; experiment: model of severe viral infection in renalase-deficient mice; conditions: FIG. 12
[7] = test system: cronin 1; experiment: levels of cronin 1, marker for inflammatory cells; conditions: FIG. 14
[8] = test system: renal ischemia reperfusion injury; experiment: renal ischemia reperfusion injury, preclinical murine model; format: in vivo
[9] = test system: cerulin-induced severe pancreatitis; experiment: cerulin-induced severe pancreatitis model; format: in vivo; conditions: FIG. 13
[10] = test system: cisplatin induced kidney injury; experiment: cisplatin-induced kidney injury in vivo
Source text: A key measure of this toxicity is a decrease in kidney mass; this is limited when Renalase A (205-240)-OH is given. More dramatic is the effect of peptide on the reduced renal function seen with cisplatin induced renal injury.

[11] = 10 mpk, * = statistical significance
[12] = peptide at 50 ug/ml, 3 hrs incubation, ELISA, p<0.01

C[C@@H]1C[C@H]2[C@@H]3CCC4=CC(=O)C=C[C@]4(C)[C@@]3(F)[C@@H](O)C[C@]2(C)[C@@]1(O)C(=O)CO [Dexamethasone, reference compound]
percent change from control, paw edema, 2 hr after carrageenan [1, 11]: 51.2* percent | percent change from control, paw edema, 4 hr after carrageenan ([1]; 10 mpk): 49.7* percent | percent change from control, paw edema, 10 hr after carrageenan ([1]; 10 mpk): 55.6* percent

[Ala^220]-Ac-Renalase A (205-240)-NH2 (KIDVPWAGQYITSNPAIRFVSIDNKKRNIESSEIGP; N-acetyl, C-terminal amide; Based on homo sapiens sequence) [peptide 10]
survival [2]: improves survival | injury in acute pancreatitis ([3]; FIG. 2): reduces injury | earliest AP responses (acinar cell related) ([3]; earliest responses, not shown): no effects | levels of active trypsin ([3]; later responses (6 hrs), FIG. 2A): tended to reduce | tissue neutrophils ([3]; later responses (6 hrs), FIG. 2B): dramatically decrease | mitochondrial injury as determined by OPA-1 and Parkin levels ([3]; later responses (6 hrs), FIG. 2C, D): reduced | cisplatin-induced injury of cultured kidney cells [4]: eliminated | injury in a cultured proximal renal tubule cell line ([4]; FIG. 3): reduces injury | inflammatory response to SARS-CoV-2 peptides ([5]; FIG. 5): decreases | SARS-CoV-2-peptide induced increase of IL1-beta [5, 12]: inhibited | SARS-CoV-2-peptide induced increase of IL6 [5, 12]: inhibited | SARS-CoV-2-peptide induced increase of TNF-alpha [5, 12]: inhibited | SARS-CoV-2 peptide S and M induced levels of interferon-gamma ([5]; peptide at 50 ug/ml, SARS-CoV-2 peptides 0.19 nM, 3 hrs incubation, ELISA): dramatically decreased | protection in severe viral infection [6]: protects | levels of cronin 1 [7]: decreases | renal ischemia reperfusion injury [8]: reduced | anti-inflammatory effect on paw edema ([1]; 0.3-30 mg/kg SC 30 min prior to carrageenan, test period of 10 hours, FIGS. 6 and 7): has an anti-inflammatory effect | activity at 2 hours [1]: active | activity and duration of activity compared with peptide 81 ([1]; comparable but different experiments, same protocols): more active and longer active than peptide 81 | activity for longer periods of time ([1]; later than 2 hours): only peptide 10 was active | activity compared with standards ([1]; versus dexamethasone and indomethacin): activity more in line with standards dexamethasone and indomethacin | necrosis [9]: effective in reducing necrosis

COc1ccc2c(c1)c(CC(=O)O)c(C)n2C(=O)c1ccc(Cl)cc1 [Indomethacin, reference compound]
percent change from control, paw edema, 2 hr after carrageenan ([1]; 5 mpk): 79.4* percent | percent change from control, paw edema, 4 hr after carrageenan ([1]; 5 mpk): 60.3* percent | percent change from control, paw edema, 6 hr after carrageenan ([1]; 5 mpk): 42.4* percent | percent change from control, paw edema, 10 hr after carrageenan ([1]; 5 mpk): 21.3%

Renalase A (205-240)-OH [Peptide 81]
plasma creatinine levels ([10]; 17 days of cisplatin treatment (4-fold increase without agonist), FIG. 4 right panel): reduced this toward the normal range | kidney injury after cisplatin-induced treatment ([10]; FIG. 4): reduces kidney injury | decrease in kidney mass ([10]; cisplatin toxicity, FIG. 4): limited | percent change from control, paw edema, 2 hr after carrageenan ([1]; 3 mpk): 14.2% | percent change from control, paw edema, 4 hr after carrageenan ([1]; 3 mpk): 1.6% | percent change from control, paw edema, 6 hr after carrageenan ([1]; 3 mpk): −13.1% | percent change from control, paw edema, 10 hr after carrageenan ([1]; 3 mpk): 2.4% | percent change from control, paw edema, 2 hr after carrageenan [1, 11]: 62.6* percent | percent change from control, paw edema, 4 hr after carrageenan ([1]; 10 mpk): 0.5% | percent change from control, paw edema, 6 hr after carrageenan ([1]; 10 mpk): 2.9% | percent change from control, paw edema, 10 hr after carrageenan ([1]; 10 mpk): 13.3% | activity at 2 hours [1]: active
